{"source": "patent US8410128B2", "about": "“Triazolopyridine compounds useful as kinase inhibitors” (Bristol-Myers Squibb Company, priority 2008, dated 2013)", "target": "T1, p38 (Homo sapiens, UniProt Q16539)", "T1 construct": "GST (N); made in house; host or cells: E. coli", "T1 sequence (Q16539 whole entry, the tested form may be a part)": "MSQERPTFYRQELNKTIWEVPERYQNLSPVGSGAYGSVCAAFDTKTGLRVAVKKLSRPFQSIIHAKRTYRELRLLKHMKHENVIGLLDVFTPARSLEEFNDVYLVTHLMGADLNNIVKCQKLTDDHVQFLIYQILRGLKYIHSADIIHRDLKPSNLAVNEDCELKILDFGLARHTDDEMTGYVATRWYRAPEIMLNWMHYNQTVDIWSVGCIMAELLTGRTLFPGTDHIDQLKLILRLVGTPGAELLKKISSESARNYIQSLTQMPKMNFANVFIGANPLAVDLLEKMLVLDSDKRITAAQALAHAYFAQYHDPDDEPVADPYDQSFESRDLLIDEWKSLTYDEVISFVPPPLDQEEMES", "test": "p38 Assay (33P-ATP/MBP filter kinase assay)", "assay_type": "biochemical", "settings": "bacterially expressed, activated p38 10 nM; ATP 1 μM; MBP substrate; 25° C., 45 min", "protocol": "Generation of p38 Kinases\nFor this assay, cDNAs of human p38α, β, and γ isozymes were cloned by PCR. These cDNAs were subcloned in the pGEX expression vector (Pharmacia). GST-p38 fusion protein was expressed in E. Coli and purified from bacterial pellets by affinity chromatography using glutathione agarose. p38 fusion protein was activated by incubating with constitutively active MKK6. Active p38 was separated from MKK6 by affinity chromatography. Constitutively active MKK6 was generated according to Raingeaud et al. (Mol. Cell. Biol., 1247-1255 (1996)).\nThe assays were performed in V-bottomed 96-well plates. The final assay volume was 60 μl prepared from three 20 μl additions of enzyme, substrates (MBP and ATP) and test compounds in assay buffer (50 mM Tris pH 7.5, 10 mM MgCl2, 50 mM NaCl and 1 mM DTT). Bacterially expressed, activated p38 was pre-incubated with test compounds for 10 min. prior to initiation of reaction with substrates. The reaction was incubated at 25° C. for 45 min. and terminated by adding 5 μl of 0.5 M EDTA to each sample. […] The filtermat was then dried in a microwave oven for 1 min., treated with MELTILEX® A scintillation wax (Wallac), and counted on a MICROBETA® scintillation counter Model 1450 (Wallac). Inhibition data were analyzed by nonlinear least-squares regression using PRIZM® (GraphPadSoftware). […]"}
{"smiles": "CC(C)Nc1ncc(-c2ccc3nncn3c2)s1", "note": "[Example 12]", "values": [{"measurement": "IC50", "value": 581, "unit": "nM"}]}
